From ChEMBL document CHEMBL1154179, “Analogs of a 4-aminothieno[2,3-d]pyrimidine lead (QB13) as modulators of P-glycoprotein substrate specificity” (Bioorg Med Chem Lett, 2009)

Legend:
Format in all cases: cell-based
[1] = target: T1, ATP-dependent translocase ABCB1 (Homo sapiens, UniProt P08183); test: Modulation of P-gp overexpressed in human A2780 cells assessed as vinblastin accumulation at 31.6 uM by MTT assay; settings: a2780, 31.6 µM
[2] = target: T1, ATP-dependent translocase ABCB1; test: Modulation of P-gp overexpressed in human A2780 cells assessed as daunorubicin accumulation preincubated 15 mins prior to daunorubicin addition measured after 180 mins by fluorescence assay
[3] = target: T1, ATP-dependent translocase ABCB1; test: Modulation of P-gp overexpressed in human A2780 cells assessed as colchicine accumulation at 31.6 uM by MTT assay; settings: a2780, 31.6 µM
[4] = target: T1, ATP-dependent translocase ABCB1; test: Modulation of P-gp overexpressed in human A2780 cells assessed as daunorubicin accumulation at 31.6 uM by MTT assay; settings: a2780, 31.6 µM

T1 sequence (P08183 whole entry): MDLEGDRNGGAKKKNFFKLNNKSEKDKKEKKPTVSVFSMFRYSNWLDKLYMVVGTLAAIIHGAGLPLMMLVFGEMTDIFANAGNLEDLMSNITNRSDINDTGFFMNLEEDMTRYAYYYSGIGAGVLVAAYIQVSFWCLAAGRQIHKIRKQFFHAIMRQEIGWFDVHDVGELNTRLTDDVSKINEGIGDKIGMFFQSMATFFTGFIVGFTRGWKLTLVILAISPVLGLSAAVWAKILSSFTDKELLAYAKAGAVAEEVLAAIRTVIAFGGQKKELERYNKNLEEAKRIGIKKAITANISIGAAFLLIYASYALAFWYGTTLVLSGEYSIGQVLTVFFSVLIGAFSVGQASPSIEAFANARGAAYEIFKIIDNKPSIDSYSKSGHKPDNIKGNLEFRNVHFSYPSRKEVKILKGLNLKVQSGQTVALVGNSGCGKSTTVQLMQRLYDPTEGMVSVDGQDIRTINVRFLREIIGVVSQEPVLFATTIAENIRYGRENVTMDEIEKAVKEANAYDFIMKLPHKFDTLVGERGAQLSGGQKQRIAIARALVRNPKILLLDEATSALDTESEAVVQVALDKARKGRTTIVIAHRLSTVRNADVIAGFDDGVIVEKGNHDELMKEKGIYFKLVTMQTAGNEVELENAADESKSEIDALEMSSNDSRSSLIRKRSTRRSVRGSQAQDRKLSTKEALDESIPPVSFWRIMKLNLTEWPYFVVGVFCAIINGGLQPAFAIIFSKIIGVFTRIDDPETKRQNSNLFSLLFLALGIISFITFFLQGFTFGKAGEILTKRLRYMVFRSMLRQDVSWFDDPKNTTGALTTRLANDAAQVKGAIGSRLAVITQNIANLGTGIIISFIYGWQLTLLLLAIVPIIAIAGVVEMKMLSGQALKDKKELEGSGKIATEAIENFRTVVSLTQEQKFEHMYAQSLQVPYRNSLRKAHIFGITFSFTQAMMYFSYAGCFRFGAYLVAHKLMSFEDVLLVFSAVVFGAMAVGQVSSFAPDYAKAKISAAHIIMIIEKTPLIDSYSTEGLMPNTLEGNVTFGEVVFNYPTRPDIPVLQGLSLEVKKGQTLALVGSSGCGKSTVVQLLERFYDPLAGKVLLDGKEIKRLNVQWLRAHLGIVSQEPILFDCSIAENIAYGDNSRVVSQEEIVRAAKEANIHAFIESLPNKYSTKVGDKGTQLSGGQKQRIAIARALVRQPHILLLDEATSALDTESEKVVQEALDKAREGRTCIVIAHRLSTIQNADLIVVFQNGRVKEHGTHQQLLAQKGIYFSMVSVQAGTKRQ

Row | Compound | Activity [1] | EC50 [2] [nM] | Activity [3] | Activity [4]
1 | Cc1sc2nc(SCCc3ccccc3)nc(N)c2c1C | Active | 2250 | Not Active | Active
2 | Nc1nc(SCCO)nc2sc3c(c12)CCCC3 |  | 1920 |  | 
3 | CCSc1nc(N)c2c(C)c(C)sc2n1 |  | 4590 |  | 
4 | Cc1sc2nc(SC(C(=O)O)c3ccccc3)nc(N)c2c1C (centres undefined) |  | > 100000 |  | 
5 | CCOC(=O)CSc1nc(N)c2ccccc2n1 |  | 3980 |  | 
6 | CCOC(=O)CSc1nc(N)c2c3c(sc2n1)CCC3 |  | 4150 |  | 
7 | CSc1nc(N)c2c3c(sc2n1)CCCC3 |  | 2650 |  | 
8 | CCOC(=O)CSc1nc(N)c2c3c(sc2n1)COCC3 |  | 1550 |  | 
9 | Nc1nc(SC(C(=O)O)c2ccccc2)nc2sc3c(c12)CCCC3 (centres undefined) |  | > 100000 |  | 
10 | COc1cc2nc(SCCc3ccccc3)nc(N)c2cc1OC |  | 1520 |  | 
11 | CCOC(=O)CSc1nc(N)c2c3c(sc2n1)CCCC3 | Active | 2240 | Not Active | Active

These reach a lower EC50 [2]. Values come first.

Row | Activity [1] | EC50 [2] [nM] | Activity [3] | Activity [4] | Compound
12 | Active | 1020 | Not Active | Active | Nc1nc(SCCc2ccccc2)nc2sc3c(c12)CCCC3
13 |  | 1210 |  |  | CCOC(=O)CSc1nc(N)c2cc(OC)c(OC)cc2n1
14 |  | 640 |  |  | Nc1nc(SCC(=O)c2ccccc2)nc2sc3c(c12)CCCC3
15 |  | 1310 |  |  | Cc1sc2nc(SCC(=O)c3ccccc3)nc(N)c2c1C
16 |  | 460 |  |  | CCSc1nc(N)c2c3c(sc2n1)CCCC3
17 |  | 560 |  |  | Nc1nc(SCCc2ccccc2)nc2sc3c(c12)CCOC3
18 |  | 1310 |  |  | CSc1nc(N)c2c(C)c(C)sc2n1
19 |  | 1100 |  |  | Nc1nc(SCCc2ccccc2)nc2ccccc12
20 | Active | 900 | Not Active | Active | CCOC(=O)CSc1nc(N)c2c(C)c(C)sc2n1
21 |  | 640 |  |  | CCOC(=O)CSc1nc(N)c2c3c(sc2n1)CN(Cc1ccccc1)CC3
22 |  | 970 |  |  | Nc1nc(SCCc2ccccc2)nc2sc3c(c12)CCC3
